Reference: ChEMBL document CHEMBL5625210, “5-Cyano substituted diarylpyridines as potent HIV-1 NNRTIs: Rational design, synthesis, and activity evaluation” (Eur J Med Chem, 2023)

How the values were obtained:
[1] = test system: Human immunodeficiency virus 1; test: Antiviral activity against HIV-1 F227L/V106A mutant infected in human MT4 cells assessed as protection against virus-induced cytopathic effect incubated for 5 days by MTT assay; type: functional, organism-based; settings: Human immunodeficiency virus 1, MT4, 120 h
[2] = Cytotoxicity against human MT4 cells assessed as reduction in cell viability incubated for 5 days by MTT assay; type: toxicity, cell-based; settings: time 5 day
[3] = test system: Human immunodeficiency virus 2; test: Antiviral activity against wild type HIV-2 ROD infected in human MT4 cells assessed as protection against virus-induced cytopathic effect incubated for 5 days by MTT assay; type: functional, organism-based; settings: Human immunodeficiency virus 2, ROD, MT4, 120 h
[4] = test system: Human immunodeficiency virus 1; test: Antiviral activity against HIV-1 K103N mutant infected in human MT4 cells assessed as protection against virus-induced cytopathic effect incubated for 5 days by MTT assay; type: functional, organism-based; settings: Human immunodeficiency virus 1, MT4, 120 h
in vitro = settings: human, MT4 cells
Description: Selectivity index, ratio of CC50 for cytotoxicity against human MT4 cells to EC50 for antiviral activity against wild type HIV-1 IIIB infected in human MT4 cells

[5] = test system: Human immunodeficiency virus 1; test: Antiviral activity against wild type HIV-1 IIIB infected in human MT4 cells assessed as protection against virus-induced cytopathic effect incubated for 5 days by MTT assay; type: functional, organism-based; settings: Human immunodeficiency virus 1, IIIB, MT4, 120 h
[6] = test system: Human immunodeficiency virus 1; test: Antiviral activity against HIV-1 Y188L mutant infected in human MT4 cells assessed as protection against virus-induced cytopathic effect incubated for 5 days by MTT assay; type: functional, organism-based; settings: Human immunodeficiency virus 1, MT4, 120 h
[7] = test system: Human immunodeficiency virus 1; test: microbe, parasite or virus in culture; settings: Human immunodeficiency virus 1, MT4, 120 h
Description: Antiviral activity against HIV-1 RES056 mutant infected in human MT4 cells assessed as protection against virus-induced cytopathic effect incubated for 5 days by MTT assay

[8] = test system: Human immunodeficiency virus 1; test: Antiviral activity against HIV-1 Y181C mutant infected in human MT4 cells assessed as protection against virus-induced cytopathic effect incubated for 5 days by MTT assay; type: functional, organism-based; settings: Human immunodeficiency virus 1, MT4, 120 h
[9] = biological target: Human immunodeficiency virus type 1 reverse transcriptase (Human immunodeficiency virus 1, UniProt Q72547); test: Inhibition of wild type HIV-1 reverse transcriptase assessed as inhibition of biotin-dUTP incorporation using ABTS as substrate incubated for 1 hrs by ELISA analysis
[10] = test system: Human immunodeficiency virus 1; test: Antiviral activity against HIV-1 E138K mutant infected in human MT4 cells assessed as protection against virus-induced cytopathic effect incubated for 5 days by MTT assay; type: functional, organism-based; settings: Human immunodeficiency virus 1, MT4, 120 h
[11] = test system: Human immunodeficiency virus 1; test: Antiviral activity against HIV-1 […] mutant infected in human MT4 cells assessed as protection against virus-induced cytopathic effect incubated for 5 days by MTT assay; type: functional, organism-based; settings: Human immunodeficiency virus 1, MT4, 120 h

SMILES	EC50 [1] [nM]	CC50 at 120 h [2] [nM]	EC50 [3] [nM]	EC50 [4] [nM]	selectivity ratio (in vitro)	EC50 [5] [nM]	EC50 [6] [nM]	EC50 [7] [nM]	EC50 [8] [nM]	IC50 [9] [nM]	EC50 [10] [nM]	EC50 [11] [nM]
Cc1cc(C#N)cc(C)c1Oc1ccc(C#N)c(Nc2ccc(C#N)cc2)n1	10900	> 65200	> 326	446	> 8330	7.82	≥ 33000	> 65200	1540	94	54.8	123
Cc1cc(C#N)cc(C)c1Oc1nc(Nc2ccc(C#N)cc2)nc(N)c1Br [ETRAVIRINE]	–	> 4600	–	3.45	–	–	18.4	20.2	8.96	–	4.82	4.6
Cc1cc(C#N)cc(C)c1Oc1nc(NC2CCN(Cc3ccc(S(C)(=O)=O)cc3)CC2)c(C#N)cc1Cl	–	> 227000	> 227	–	> 10400	21.8	–	–	–	449	–	–
Cc1cc(C#N)cc(C)c1Oc1nc(Nc2ccc(C#N)cc2)c(C#N)cc1Cl	–	240000	> 240	–	8340	28.7	–	–	–	153	–	–
Cc1cc(C#N)cc(C)c1Oc1ccc(C#N)c(Nc2ccc(CN3CCN(S(=O)(=O)N(C)C)CC3)cc2)n1	–	5170	> 5.17	–	26	197	–	–	–	1550	–	–
Cc1ccnc2c1NC(=O)c1cccnc1N2C1CC1 [NEVIRAPINE]	> 9510	> 9510	> 9.51	–	–	–	> 9510	> 9510	4210	–	76.1	1990
Cc1cc(C#N)cc(C)c1Oc1nc(NC2CCN(Cc3ccc(S(N)(=O)=O)cc3)CC2)c(C#N)cc1Cl	–	22600	> 22.6	–	691	32.7	–	–	–	466	–	–
Cc1cc(C#N)cc(C)c1Oc1nc(Nc2ccc(C#N)c(C#N)c2)c(C#N)cc1Cl	2250	202000	> 202	233	14300	14.1	> 202000	> 202000	1120	144	287	313
Cc1cc(C#N)cc(C)c1Oc1ccc(C#N)c(Nc2ccc(CN3CCN(S(C)(=O)=O)CC3)cc2)n1	–	18000	> 18	–	444	40.7	–	–	–	277	–	–
O=C1Nc2ccc(Cl)cc2[C@@](C#CC2CC2)(C(F)(F)F)O1 [EFAVIRENZ]	890	> 6340	–	114	–	2.53	355	–	6.34	–	6.34	31.8
Cc1cc(C#N)cc(C)c1Oc1nc(Nc2ccc(CN3CCN(S(=O)(=O)N(C)C)CC3)cc2)c(C#N)cc1F	–	149000	> 149	–	744	200	–	–	–	2600	–	–
Cc1cc(C#N)cc(C)c1Oc1nc(Nc2ccc(CN3CCN(S(C)(=O)=O)CC3)cc2)c(C#N)cc1Cl	276	208000	> 208	633	14300	14.5	2960	> 208000	555	392	131	238
Cc1cc(C#N)cc(C)c1Oc1nc(Nc2ccc(C#N)cc2)c(C#N)cc1F	≥ 17400	> 62300	> 311	2040	> 8330	7.47	> 62300	> 62300	22400	112	341	1140
Cc1cc(C#N)cc(C)c1Oc1nc(Nc2ccc(C#N)c(F)c2)c(C#N)cc1F	710	218000	> 218	540	20900	10.4	16700	> 218000	1930	143	141	316
Cc1cc(C#N)cc(C)c1Oc1nc(Nc2ccc(C#N)c(F)c2)c(C#N)cc1Cl	–	282000	> 282	–	11300	25	–	–	–	98	–	–
Cc1cc(C#N)cc(C)c1Oc1ccc(C#N)c(NC2CCN(Cc3ccc(S(N)(=O)=O)cc3)CC2)n1	194	21800	> 21.8	19.4	5630	3.87	114	2780	36.8	205	19.4	73.6
Cc1cc(C#N)cc(C)c1Oc1nc(Nc2ccc(CN3CCN(S(C)(=O)=O)CC3)cc2)c(C#N)cc1F	–	213000	> 213	–	4740	44.9	–	–	–	294	–	–
Cc1cc(C#N)cc(C)c1Oc1ccc(C#N)c(NC2CCN(Cc3ccc(C(N)=O)cc3)CC2)n1	1020	28600	> 28.6	110	3440	8.32	348	4250	110	256	50	318
Cc1cc(C#N)cc(C)c1Oc1nc(Nc2ccc(CN3CCN(S(=O)(=O)N(C)C)CC3)cc2)c(C#N)cc1Cl	–	178000	> 178	–	2580	69	–	–	–	686	–	–
Cc1cc(C#N)cc(C)c1Oc1nc(NC2CCN(Cc3ccc(S(C)(=O)=O)cc3)CC2)c(C#N)cc1F	67.5	27500	> 27	9.37	4890	5.62	73.1	171	28.1	341	18.7	22.5
Cc1cc(C#N)cc(C)c1Oc1nc(Nc2ccc(C#N)c(C#N)c2)c(C#N)cc1F	–	> 306000	> 306	–	> 11400	26.9	–	–	–	230	–	–
Cc1cc(C#N)cc(C)c1Oc1ccc(C#N)c(Nc2ccc(C#N)c(C#N)c2)n1	–	> 320000	> 320	–	> 2780	115	–	–	–	697	–	–
Cc1cc(C#N)cc(C)c1Oc1ccc(C#N)c(NC2CCN(Cc3ccc(S(C)(=O)=O)cc3)CC2)n1	182	19100	> 19.1	34.9	3290	5.82	244	7180	38.8	429	211	136
Cc1cc(C#N)cc(C)c1Oc1nc(NC2CCN(Cc3ccc(S(N)(=O)=O)cc3)CC2)c(C#N)cc1F	234	25200	> 25.2	16.8	2250	11.2	157	260	44.9	292	52.4	43
Cc1cc(C#N)cc(C)c1Oc1nc(NC2CCN(Cc3ccc(C(N)=O)cc3)CC2)c(C#N)cc1F	347	24100	> 24.5	44.1	4010	6.02	227	3590	84.2	303	26.1	100
Cc1cc(C#N)cc(C)c1Oc1ccc(C#N)c(Nc2ccc(C#N)c(F)c2)n1	–	27300	> 27.3	–	19	1460	–	–	–	12000	–	–
Cc1cn([C@@H]2C[C@@H](N=[N+]=[N-])[C@H](CO)O2)c(=O)[nH]c1=O	37.8	> 7480	0.036	29.6	> 250	30	21	28.8	22.1	–	23.6	10.5
Cc1cc(C#N)cc(C)c1Oc1nc(NC2CCN(Cc3ccc(C(N)=O)cc3)CC2)c(C#N)cc1Cl	357	154000	> 154	31.1	26500	5.83	221	2440	40.8	402	33	66
